These results are taken from PMC7870846, “Incorporation of sensing modalities into de novo designed fluorescence-activating proteins” (Nature Communications, 2021).

Marks after values point to notes of the source that are not given here.

For orientation: Kd means the free concentration of one partner at which half of the binding sites on the other are occupied at equilibrium, for simple one-to-one binding.

The conditions of data set [1]: cited from earlier work.
The target in the next data set is T1, mFAP2a.
T1 construct: de novo designed beta-barrel; large-scale purification and SEC
The data set is described as follows: Fluorescence titration of DFHBI or DFHBI-1T into 20.0 nM purified protein in high-salt Tev cleavage buffer (25.0 mM Tris, 100 mM NaCl, pH 8.00), excitation 468 nm and emission 530 nm, means of eight technical replicates fit to a single-binding site isotherm. As to conditions: n = 8. The source says:
(§1) Fig. 1 Characterization of brighter and chromophore-specific mFAPs. a Computational model of de novo designed β-barrel variant mFAP2b showing protein backbone (cartoon) and bound DFHBI chromophore (sticks). b, c Chemical structures of DFHBI and DFHBI-1T, respectively. d, e In vitro titration of d DFHBI or e DFHBI-1T with mFAP2 (gray), mFAP2b (lime), mFAP2a (violet), and mFAP10 (pink) proteins. Error bars represent s.d. of the mean of eight technical replicates. […] The images (left) are the pseudocolored normalized fluorescence intensity per pixel. Scale bars represent 10 microns. Imaging was independently repeated twice with similar results. The computational models (right) show the residues unique to mFAP2b (V13, M15) (lime sticks) or mFAP2a (A13, F15) (violet sticks). Intermolecular hydrogen bonds to the chromophore are shown as black dotted lines. […] Source data is available for Fig. 1f–i.
(§2) Fluorescence endpoints were measured on a Synergy Neo2 hybrid multi-mode reader (BioTek) in flat bottom, black polystyrene, non-binding surface 96-well microplates (Corning 3650). In measuring chromophore-binding affinities (Fig. 1d, e), mFAP2, mFAP2a, and mFAP2b, and mFAP10 were produced by large-scale protein purification and SEC purification. Proteins were aliquoted in eight technical replicates in 200 μL final volumes to 20.0 nM final concentration in ten serial dilutions ( 10 dilution factor) of DFHBI starting from 31.6 μM DFHBI or 31.6 μM DFHBI-1T final concentrations, including an eleventh condition without chromophore. Fluorescence was excited at λex = 468 nm and fluorescence emission measured at λem = 530 nm. Background fluorescence endpoints of wells with identical chromophore concentrations but purified protein replaced with an identical volume of high-salt Tev cleavage buffer were measured, and fluorescence endpoints subtracted from those measured with protein. Background-subtracted data were averaged and the means normalized from 0 to 1 and fit to a single-binding site isotherm function using non-linear least squares fitting to obtain a fitted Kd value (Table 1), and the fit scaled to the maximum mean value (Fig. 1d, e).

The target in another data set is T2, mFAP2b.
T2 construct: de novo designed beta-barrel; large-scale purification and SEC
The description is as above. As to conditions: n = 8.
Description: as §1, §2

In a further data set the target is T3, mFAP10.
T3 construct: de novo designed beta-barrel; large-scale purification and SEC
Described as above. The note with it: n = 8.
Description: as §1, §2

Data set [2] deals with T4, mFAP_pH.
T4 construct: de novo designed beta-barrel; large-scale protein purification
As to the kind of experiment: Fluorescence titration of DFHBI into 500 nM protein in Na2HPO4-citrate buffer with 143 mM NaCl at pH 7.34 (excitation 483 nm, emission 503 nm), fit to a single-binding site isotherm. As to conditions: read-out: affinities (Kd values), phenolate form of DFHBI. On the procedure:
(§3) In measuring the protonated (phenolic) and deprotonated (phenolate) DFHBI affinities with mFAP_pH (Supplementary Fig. 5c), fluorescence endpoints were measured on a Synergy Neo2 hybrid multi-mode reader (BioTek) in flat bottom, black polystyrene, non-binding surface 96-well microplates (Corning 3650). mFAP_pH was produced by large-scale protein purification[49] and aliquoted to 200 μL final volumes at 500 nM final concentration in seven serial dilutions ( 10 dilution factor) of DFHBI starting from 10.0 μM DFHBI final concentration, including an eighth condition without chromophore, in Na2HPO4-citrate buffer supplemented with 143 mM NaCl final concentration at either pH 3.61 or pH 7.34. For pH 3.61 fluorescence was excited at λex = 379 nm and fluorescence emission measured at λem = 498 nm, and for pH 7.34 fluorescence was excited at λex = 483 nm and fluorescence emission measured at λem = 503 nm. At each pH, background fluorescence endpoints of wells with identical chromophore concentrations but purified protein replaced with an identical volume of buffer were measured, and fluorescence endpoints subtracted from those measured with protein. Background-subtracted data were normalized from 0 to 1 and fit to a single-binding site isotherm function using non-linear least squares fitting to obtain the reported Kd values, which were less than the protein concentrations tested.

Data set [3] addresses T4, mFAP_pH. The data set is described as follows: Fluorescence titration of DFHBI into 500 nM protein in Na2HPO4-citrate buffer with 143 mM NaCl at pH 3.61 (excitation 379 nm, emission 498 nm), fit to a single-binding site isotherm. The note with it: read-out: affinities (Kd values), phenolic form of DFHBI. The procedure:
as §3

The next data set has as its system SERCA pumps. As to the kind of experiment: Pharmacological inhibition of SERCA Ca2+ pumps in cardiomyocytes. Format: cell-based, human. The note with it: 20.0 µM final; 3.00 µM DFHBI. On the procedure:
Pharmacological inhibition of SERCA Ca^2+ pumps: Cardiomyocytes in 2.0 mL of Tyrode’s solution labeled with 3.00 µM DFHBI were imaged at 2 Hz for 30 min with an sCMOS camera (Photometrics Prime95B) and 20x magnification lens (Leica HCX PL FLUOTAR L 20x/0.40 NA CORR). A stock solution of 20.0 mM cyclopiazonic acid (CPA) (Tocris, 1235) in 100% anhydrous DMSO was prepared. Two milliliters of Tyrode’s solution containing 3.00 µM DFHBI and 40.0 µM CPA was administered at ~10 min from initial image acquisition to inhibit SERCA pumps and disrupt Ca^2+ recovery into the SR after contraction. Fluorescence fold-change over the whole field of view in each frame was calculated by Eq. (11), where F is the fluorescence per frame, and F0 is the fluorescence at the first frame (Supplementary Fig. 19c).

Data set [4] can be described thus: pH-dependent fluorescence assays (pH titration). Format: biochemical. As to conditions: from pH 8.38 to pH 4.79. The procedure:
In measuring pH-dependent fluorescence (Fig. 3d–i), Na2HPO4-citrate buffer supplemented with 150 mM NaCl at unique pH values were produced via mixing various volumes of 100 mM citric acid (Sigma Aldrich), 200 mM Na2HPO4 (Sigma Aldrich), and 2.00 M NaCl, and final pHs quantified via an Accumet AB15 Basic pH meter (Fisher Scientific). pHRed and pHluorin2 were produced via large-scale protein purification, 6xHis-tag removal and size-exclusion chromatography (SEC) purification, and mFAP_pH and mFAP2b were produced via large-scale protein purification and SEC purification. pH-dependent fluorescence was measured at […] final protein concentration for mFAP2b, mFAP_pH and pHRed, and 170 nM final concentration for pHluorin2, at each pH in technical triplicate in 200 μL final volumes per well. […] In measuring fluorescence excitation spectra at each pH (Fig. 3d), excitation wavelengths were set to the range λex = 300–530 nm and fluorescence emission measured at λem = 562 nm. In measuring pH-dependent fluorescence excitation spectra at pH 3.76 and pH 7.34 (Fig. 3f, g), excitation spectra were measured using excitation wavelengths in the range λex = 300–540 nm and emission wavelength λem = 592 nm. […]

`CC1=N/C(=C\c2cc(F)c(O)c(F)c2)C(=O)N1C` [DFHBI, 3,5-difluoro-4-hydroxybenzylidene imidazolinone]: in data set [1], the Absolute quantum yield is listed as 0.001^f and the Reported quantum yield is 0.0007^e. For the same molecule, in data set [1] (free, unbound in solution), the pKa is listed as ~ 5.4.

As to `CC1=N/C(=C\c2cc(F)c(O)c(F)c2)C(=O)N1CC(F)(F)F` [DFHBI-1T, (Z)-4-(3,5-difluoro-4-hydroxybenzylidene)-2-methyl-1-(2,2,2-trifluoroethyl)-1H-imidazol-5(4 H)-one], in data set [1], the Reported quantum yield is 0.00098^e.

Take `CC1=N/C(=C\c2cc(F)c(O)c(F)c2)C(=O)N1CC(F)(F)F` [DFHBI-1T, (Z)-4-(3,5-difluoro-4-hydroxybenzylidene)-2-methyl-1-(2,2,2-trifluoroethyl)-1H-imidazol-5(4H)-one]: the Kd was found to be 5800 ± 860 nM at mFAP2a, 11 ± 3.1 µM on mFAP2b and 45 ± 6.5 nM at mFAP10.

Turning to `CC1=N/C(=C\c2cc(F)c(O)c(F)c2)C(=O)N1C` [DFHBI], the Kd at mFAP2a is 150 ± 11 nM; at mFAP2b, 1.8 ± 0.25 µM; at mFAP10 it was 17 ± 7.9 nM; at mFAP_pH [2] it was approximately 160 nM; at mFAP_pH [3] it was approximately 190 nM.

With `CC(=O)C1=C(O)[C@@H]2[C@H]3c4c[nH]c5cccc(c45)C[C@H]3C(C)(C)N2C1=O` [cyclopiazonic acid], the “effect on SR fluorescence of EF1n_mFAP2b sensor” value with SERCA pumps was “sustained increase in fluorescence in the SR”.

As to “pHRed: previously reported pH sensor protein [reference compound]”, in data set [4], the “fold-change in ratiometric fluorescence (Fratio)” value was ~ 34 fold.
